Source: patent US6030823A, “D-aminoacylase” (Daicel Chemical Industries, Ltd., priority 1998, dated 2000)

Tested on: D-aminoacylase derived from Sebekia benihana IFO14309
Assay: Substrate specificity of the aminoacylase
Assay type: biochemical
Details: 20 mM substrate, 50 mM Tris-HCl pH 7.5, 30° C., 5 min
Procedure: The substrate specificity of the aminoacylase was examined using N-acetyl-D-methionine, N-acetyl-D-alanine, N-acetyl-D-aspartic acid, N-acetyl-D-leucine, N-acetyl-D-phenylalanine, N-acetyl-D-tryptophan, N-acetyl-D-valine, N-acetyl-L-leucine, N-acetyl-L-methionine, and N-acetyl-L-valine as substrates. The enzyme activity was assayed as follows. A 0.050-ml aliquot of an enzyme solution was added to 0.950 ml of 20 mM N-acetyl-D(or L)-amino acid in 50 mM Tris-HCl buffer (pH 7.5) and incubated at 30° C. for 5 min. The reaction was then stopped by adding 0.50 ml of a TCA solution to the reaction mixture. The relative activity is shown in Table 5, taking the activity for N-acetyl-L-methionine as 100%.

| Structure (SMILES) | Relative activity |
| --- | --- |
| CC(=O)N[C@H](CC(N)=O)C(=O)O [N-Ac-D-Asn, N-acetyl-D-asparagine] | 1.4% |
| CSCC[C@H](NC(C)=O)C(=O)O [N-Ac-L-Met, N-acetyl-L-methionine] | 0% |
| CSCC[C@@H](NC(C)=O)C(=O)O [N-Ac-D-Met, N-acetyl-D-methionine] | 100% |

Now from value to compound:

| Relative activity | Structure (SMILES) |
| --- | --- |
| 0% | CC(=O)N[C@H](C(=O)O)C(C)C [N-Ac-L-Val, N-acetyl-L-valine] |
| 255% | CC(=O)N[C@H](CC(C)C)C(=O)O [N-Ac-D-Leu, N-acetyl-D-leucine] |
| 1.1% | CC(=O)N[C@H](C)C(=O)O [N-Ac-D-Ala, N-acetyl-D-alanine] |
